Where two headings read alike, the source gives them in different places.
Molecular target: HiBiT tagged Wee1 (Homo sapiens, UniProt P30291)
Assay: Wee1 protein degradation assay (HiBiT assay)
Format: cell-based
[1] = engineered HT-1080 cells, 20 hours
[2] = engineered HT-1080 cells, 20 hours, maximum percentage of Wee1 degradation, read-out: HiBiT Wee1: Dmax
[3] = HT-1080, read-out: HiBiT Wee1: Dmax

Sequence of HiBiT tagged Wee1 (P30291 whole entry): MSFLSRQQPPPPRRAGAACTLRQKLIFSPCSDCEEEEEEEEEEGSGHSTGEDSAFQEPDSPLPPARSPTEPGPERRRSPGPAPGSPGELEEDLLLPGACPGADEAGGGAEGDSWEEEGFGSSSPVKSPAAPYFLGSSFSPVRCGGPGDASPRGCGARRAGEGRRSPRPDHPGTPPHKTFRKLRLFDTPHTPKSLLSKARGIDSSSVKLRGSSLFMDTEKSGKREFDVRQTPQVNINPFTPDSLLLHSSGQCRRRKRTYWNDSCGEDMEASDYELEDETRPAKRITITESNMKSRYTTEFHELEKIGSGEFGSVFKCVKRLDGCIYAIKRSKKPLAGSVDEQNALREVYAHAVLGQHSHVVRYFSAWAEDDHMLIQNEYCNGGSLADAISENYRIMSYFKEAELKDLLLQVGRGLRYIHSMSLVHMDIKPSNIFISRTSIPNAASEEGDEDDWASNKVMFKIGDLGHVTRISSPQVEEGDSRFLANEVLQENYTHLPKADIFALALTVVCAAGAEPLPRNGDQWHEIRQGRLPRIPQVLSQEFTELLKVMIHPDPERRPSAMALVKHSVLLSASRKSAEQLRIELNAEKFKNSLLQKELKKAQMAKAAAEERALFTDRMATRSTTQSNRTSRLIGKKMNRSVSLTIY

SMILES	DC50 [1] [nM]	Dmax [2] [%]	Dmax [3] [%]	Dmax (HT-1080, […], maximum percentage of Wee1 degradation, read-out: HiBiT Wee1: Dmax) [%]
C=CCn1c(=O)c2cnc(Nc3ccc(C4CCN(CC5CCN(c6ccc(C(=O)NC7CCC(=O)NC7=O)nc6)CC5)CC4)cc3)nc2n1-c1cccc(C(C)(C)O)n1 (centres unmarked) [Compound 35]	> 1000	< 50	–	–
O=C1CCC(N2C(=O)c3ccc(N4CC(N5CCC(c6ccc(Nc7ncc8c(=O)n(-c9c(Cl)cccc9Cl)c9nccn9c8n7)cc6)CC5)C4)cc3C2=O)C(=O)N1 (centres unmarked) [Compound 42]	> 1000	50 to 75	–	–
C=CCn1c(=O)c2cnc(Nc3ccc4c(c3)CN(CCCNc3ccc5c(c3)C(=O)N(C3CCC(=O)NC3=O)C5=O)CC4)nc2n1-c1cccc(C(C)(C)O)n1 (centres unmarked) [Compound 23]	> 1000	< 50	–	–
O=C1CCC(N2C(=O)c3ccc(N4CCC(CCN5CCN(c6ccc(Nc7ncc8c(=O)n(-c9c(Cl)cccc9Cl)c9nccn9c8n7)cc6)CC5)CC4)cc3C2=O)C(=O)N1 (centres unmarked) [Compound 4]	> 1000	< 50	–	–
COc1ccc(C(=O)N2CCC3(CCN(Cc4ccc(Nc5ncc6c(=O)n(-c7c(Cl)cccc7Cl)c7nccn7c6n5)cc4)CC3)CC2)cc1N1CCC(=O)NC1=O [Compound 59]	> 1000	< 50	–	–
O=C1CCC(N2C(=O)c3ccc(N4CCC(CN5CCc6cc(Nc7ncc8c(=O)n(-c9c(Cl)cccc9Cl)c9nccn9c8n7)ccc6C5)CC4)cc3C2=O)C(=O)N1 (centres unmarked) [Compound 1]	> 1000	< 50	–	–
COc1ccc(C(=O)N2CCC(CCN3CCC(c4ccc(Nc5ncc6c(=O)n(-c7c(Cl)cccc7Cl)c7nccn7c6n5)cc4)CC3)CC2)cc1N1CCC(=O)NC1=O [Compound 28]	> 1000	50 to 75	–	–
C=CCn1c(=O)c2cnc(Nc3ccc(N4CCN(CC5CCN(c6cccc7c(N8CCC(=O)NC8=O)nn(C)c67)CC5)CC4)cc3)nc2n1-c1cccc(C(C)(C)O)n1 [Compound 143]	< 100	50 to 75	–	–
C=CCn1c(=O)c2cnc(Nc3ccc(N4CCN(CCC5CCN(C(=O)c6ccc(OC)c(N7CCC(=O)NC7=O)c6)CC5)CC4)cc3)nc2n1-c1cccc(C(C)(C)O)n1 [Compound 29]	> 1000	< 50	–	–
C=CCn1c(=O)c2cnc(Nc3ccc4c(c3)CN(CCCCNc3ccc5c(c3)C(=O)N(C3CCC(=O)NC3=O)C5=O)CC4)nc2n1-c1cccc(C(C)(C)O)n1 (centres unmarked) [Compound 24]	> 1000	–	< 50	–
C=CCn1c(=O)c2cnc(Nc3ccc4c(c3)CN(CCCCCCNc3ccc5c(c3)C(=O)N(C3CCC(=O)NC3=O)C5=O)CC4)nc2n1-c1cccc(C(C)(C)O)n1 (centres unmarked) [Compound 22]	> 1000	–	< 50	–
Cc1cc(Nc2ncc3c(n2)N(C)CN(c2c(Cl)cccc2Cl)C3=O)ccc1N1CCC(CN2CCC(c3ccc4c(c3)C(=O)N(C3CCC(=O)NC3=O)C4=O)CC2)CC1 (centres unmarked) [Compound 33]	> 1000	–	–	< 50
C=CCn1c(=O)c2cnc(Nc3ccc(C4CCN(CC5CCN(c6ccc(NC7CCC(=O)NC7=O)cc6C(F)(F)F)CC5)CC4)cc3)nc2n1-c1cccc(C(C)(C)O)n1 (centres unmarked) [Compound 107]	< 100	> 75	–	–
C=CCn1c(=O)c2cnc(Nc3ccc(N4CCC(N(C)C5CCN(c6cccc7c6n(C)c(=O)n7C6CCC(=O)NC6=O)CC5)CC4)cc3)nc2n1-c1cccc(C(C)(C)O)n1 (centres unmarked) [Compound 98]	< 100	50 to 75	–	–

Continued, in another order:

DC50 [1] [nM]	Dmax [2] [%]	SMILES	Dmax [3] [%]	Dmax (HT-1080, […], maximum percentage of Wee1 degradation, read-out: HiBiT Wee1: Dmax) [%]
< 100	> 75	C=CCn1c(=O)c2cnc(Nc3ccc(N4CCC(CN5CCN(c6cccc7c6n(C)c(=O)n7C6CCC(=O)NC6=O)CC5)CC4)cc3)nc2n1-c1cccc(C(C)(C)O)n1 (centres unmarked) [Compound 90]	–	–
< 100	50 to 75	C=CCn1c(=O)c2cnc(Nc3ccc(N4CCN(C(=O)CC5(O)CCN(c6ccc(NC7CCC(=O)NC7=O)cc6F)CC5)CC4)cc3)nc2n1-c1ccc2c(n1)[C@@](O)(CC)CC2 (some centres unmarked) [Compound 159]	–	–
< 100	> 75	C=CCn1c(=O)c2cnc(Nc3ccc(N4CCN(CC5CCN(c6ccc(NC7CCC(=O)NC7=O)cc6F)CC5)CC4)cc3)nc2n1-c1ccc2c(n1)[C@](C)(O)CC2 (some centres unmarked) [Compound 112]	–	–
< 100	50 to 75	O=C1CCC(N2C(=O)c3ccc(N4CC(CN5CCC(c6ccc(Nc7ncc8c(=O)n(-c9c(Cl)cccc9Cl)c9nccn9c8n7)cc6)CC5)C4)cc3C2=O)C(=O)N1 (centres unmarked) [Compound 13]	–	–
< 100	> 75	C=CCn1c(=O)c2cnc(Nc3ccc(N4CCN(CC5CCN(c6ccc(NC7CCC(=O)NC7=O)cc6F)CC5)CC4)c(Cl)c3)nc2n1-c1ccc2c(n1)[C@@](O)(CC)CC2 (some centres unmarked) [Compound 167]	–	–
< 100	50 to 75	C=CCn1c(=O)c2cnc(Nc3ccc(N4CCC(CN5CCN(c6cc7c(cc6F)C(=O)N(C6CCC(=O)NC6=O)C7=O)CC5)CC4)cc3)nc2n1-c1cccc(C(C)(C)O)n1 (centres unmarked) [Compound 57]	–	–
< 100	> 75	C=CCn1c(=O)c2cnc(Nc3ccc(N4CCC(CN5CCN(c6ccc(NC7CCC(=O)NC7=O)cc6F)CC5)CC4)c(C)c3)nc2n1-c1ccc2c(n1)[C@@](C)(O)CC2 (some centres unmarked) [Compound 133]	–	–
< 100	> 75	C=CCn1c(=O)c2cnc(Nc3ccc(N4CCN(CC5CCN(c6ccc(NC7CCC(=O)NC7=O)cc6F)CC5)CC4)cc3)nc2n1-c1ccc2c(n1)[C@@](O)(CC)CCC2 (single isomer, unassigned) [Compound 188]	–	–
< 100	50 to 75	C=CCn1c(=O)c2cnc(Nc3ccc(C4CCN(C[C@H]5CCN(c6ccc7c(c6)C(=O)N(C6CCC(=O)NC6=O)C7=O)C5)CC4)cc3)nc2n1-c1cccc(C(C)(C)O)n1 (some centres unmarked) [Compound 36]	–	–
< 100	> 75	C=CCn1c(=O)c2cnc(Nc3ccc(N4CCC(CN5CCN(c6cc7c(cc6F)c(N6CCC(=O)NC6=O)nn7C)CC5)CC4)cc3)nc2n1-c1ccc2c(n1)[C@@](O)(CC)CC2 [Compound 201]	–	–
< 100	> 75	C=CCn1c(=O)c2cnc(Nc3ccc(N4CCN(CC5CCN(c6ccc(NC7CCC(=O)NC7=O)cc6F)CC5)CC4)cc3)nc2n1-c1ccc2c(n1)[C@@](C)(O)CCC2 (single isomer, unassigned) [Compound 191]	–	–
< 100	> 75	C=CCn1c(=O)c2cnc(Nc3ccc(N4CCN(CC5CCN(c6ccc(NC7CCC(=O)NC7=O)cc6F)CC5)CC4)c(C)c3)nc2n1-c1ccc2c(n1)[C@@](O)(CC)CC2 (some centres unmarked) [Compound 128]	–	–
< 100	> 75	C=CCn1c(=O)c2cnc(Nc3ccc(N4CCC(CN5CCN(c6ccc(NC7CCC(=O)NC7=O)cc6F)CC5)CC4)c(C)c3)nc2n1-c1ccc2c(n1)[C@@](O)(CC)CC2 (some centres unmarked) [Compound 134]	–	–
< 100	50 to 75	C=CCn1c(=O)c2cnc(Nc3ccc(N4CCN(CC5CCN(Cc6cccc7c6n(C)c(=O)n7C6CCC(=O)NC6=O)CC5)CC4)cc3)nc2n1-c1cccc(C(C)(C)O)n1 (centres unmarked) [Compound 64]	–	–
< 100	> 75	C=CCn1c(=O)c2cnc(Nc3ccc(N4CCN(CC5CCN(c6ccc(NC7CCC(=O)NC7=O)cn6)CC5)CC4)cc3)nc2n1-c1ccc2c(n1)[C@@](O)(CC)CC2 (some centres unmarked) [Compound 136]	–	–
< 100	50 to 75	C=CCn1c(=O)c2cnc(Nc3ccc(N4CCN(CC5CCN(c6cccc7c(N8CCC(=O)NC8=O)nn(C)c67)CC5)CC4)cc3)nc2n1-c1ccc2c(n1)[C@@](O)(CC)CC2 [Compound 124]	–	–
< 100	> 75	C=CCn1c(=O)c2cnc(Nc3ccc(N4CCN(CC5CCN(c6c(F)cc(NC7CCC(=O)NC7=O)cc6F)CC5)CC4)cc3)nc2n1-c1ccc2c(n1)[C@@](O)(CC)CC2 (some centres unmarked) [Compound 175]	–	–

Source: patent publication US20250049798A1, “WEE1 PROTEIN KINASE DEGRADATION AGENT AND USE THEREOF” (HANGZHOU GLUBIO PHARMACEUTICAL CO. LTD., priority 2021, published 2025)
